Data as given in patent US12215133B2 (BrightGene Bio-Medical Technology Co., Ltd., priority 2021, dated 2025).

Tests used:
[1] = biological target: T1, GLP-1 receptor (Homo sapiens, UniProt P43220); assay: cAMP experiment, GLP-1 receptor (HEK293 host cell line); assay type: cell-based; settings: HEK293 host cells
T1 construct: expressed in transfected cells; host or cells: HEK293 cell line

[2] = biological target: T2, GIP receptor (Homo sapiens, UniProt P48546); assay: cAMP experiment, GIP receptor (CHO host cell line); assay type: cell-based; settings: CHO host cells
T2 construct: expressed in transfected cells; host or cells: CHO cell line
T2 sequence (P48546 22-466): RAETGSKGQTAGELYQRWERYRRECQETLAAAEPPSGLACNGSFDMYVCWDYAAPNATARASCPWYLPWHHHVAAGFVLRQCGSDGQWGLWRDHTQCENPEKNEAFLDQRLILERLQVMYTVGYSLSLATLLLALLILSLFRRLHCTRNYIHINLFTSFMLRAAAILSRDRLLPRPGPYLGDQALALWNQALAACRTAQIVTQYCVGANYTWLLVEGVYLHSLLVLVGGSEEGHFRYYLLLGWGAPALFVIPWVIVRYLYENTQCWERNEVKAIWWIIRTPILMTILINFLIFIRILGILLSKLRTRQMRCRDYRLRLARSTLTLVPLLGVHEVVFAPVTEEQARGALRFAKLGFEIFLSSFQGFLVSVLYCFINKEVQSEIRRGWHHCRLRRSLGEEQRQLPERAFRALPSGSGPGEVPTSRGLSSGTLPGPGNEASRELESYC

[3] = test system: db/db mice; assay: Hypoglycemic effect of BG121 and BG128 in db/db mice (Experimental Example 2); assay type: in vivo; settings: for glycosylated hemoglobin content in serum vs solvent control / insulin content in serum vs solvent control: 25 days after administration; for glycosylated hemoglobin content in serum vs solvent control: FIG. 6; for insulin content in serum vs solvent control: FIG. 7; for body weight vs solvent control: day 4, 7, 10, 13, 16, 19, 22, FIG. 5; for non-fasting blood glucose vs solvent control: FIG. 3
Experimental: Germline: BKS mice (db/db mice); source: Gempharmatech Co., Ltd.; license key: SCXK (SU) 2018-0008; certificate number: 202100117; grade: SPF; number: 32; gender: male; age: 8 weeks (at the beginning of modeling); animal identification: ear tag.
Feeding conditions: temperature: 22±2° C.; humidity: 40%-70%; lighting: artificial lighting simulates day and night changes; drinking water: free to drink; feed: mouse breeding feed, wherein the mice were fasted overnight before determining fasting blood sugar, and the mice were free to eat for the rest of the time.
Formulation of BG128 (1 mg/ml) stock solution: a certain amount of BG128 was weighed, an appropriate volume of solvent (20 mM citric acid, pH 7.0) was added, and the mixture was sub-packaged at 100 μl/tube and frozen at −80° C. for later use;
BG128 (0.0151 mg/ml, for 30 nmol/kg administration): 90 μL of the 1 mg/mL stock solution was taken and added to a 10 mL EP together with 810 μL of the solvent, the mixture was homogeneously mixed in a vortex mixer, then 5044 μL of the solvent was added, and the mixture was homogeneously mixed in a vortex mixer and used up on the same day;
BG128 (0.0050 mg/ml, for 10 nmol/kg administration): 2 mL of BG128 ([…]) were taken, and 4 mL of the solvent was added, and the mixture was homogeneously mixed in a vortex mixer and used up on the same day.
32 SPF-grade male BKS-DB mice (db/db mice) were fed adaptively for 1 week. […] During the experiment, the experimenters need to observe the signs and health conditions of the experimental animals. Any abnormal manifestations of animals, such as pain, depression, decreased activity, etc., should be recorded in the original experimental records. If the abnormal manifestations of the experimental animals exceed the regulations in relevant documents for animal welfare, the animal can be euthanized after being notified.
Modeling method: db/db mice would develop spontaneous type 2 diabetes after being fed for 6 weeks, and the mice would develop symptoms, such as obesity, insulin resistance and hyperglycemia;
Mode of administration: it was intended to use subcutaneous injection by the clinical route of administration, the volume of administration is: 10 mL/kg, once every 3 days, for 22 consecutive days;
Fasting blood glucose determination: according to the above-mentioned animal grouping and administration dose, the fasting blood glucose of the mice was determined two days before the first administration and the body weight was determined. […] The fasting blood glucose levels were determined on day 7, 13, 19, and 25 after the first administration (changing the bedding and fasting before the fasting blood glucose determination), and the mice were fasted;
Non-fasting blood glucose determination: the blood glucose was determined at time points of 1, 3, 6, 24, 48, and 72 hours after the first administration;
Body weight determination: determined twice a week;
Food intake determination: determined twice a week.
After 25 days of administration, blood samples were collected by picking the eyeballs, and the serum insulin and glycosylated hemoglobin contents of the mice were determined respectively.
All reported determination data was calculated using GraphPad prism8.0 software for group mean and standard deviation.

[4] = 10 nmol/kg s.c. once every 3 days
[5] = 30 nmol/kg s.c. once every 3 days

T1 sequence (P43220 24-463, species assumed): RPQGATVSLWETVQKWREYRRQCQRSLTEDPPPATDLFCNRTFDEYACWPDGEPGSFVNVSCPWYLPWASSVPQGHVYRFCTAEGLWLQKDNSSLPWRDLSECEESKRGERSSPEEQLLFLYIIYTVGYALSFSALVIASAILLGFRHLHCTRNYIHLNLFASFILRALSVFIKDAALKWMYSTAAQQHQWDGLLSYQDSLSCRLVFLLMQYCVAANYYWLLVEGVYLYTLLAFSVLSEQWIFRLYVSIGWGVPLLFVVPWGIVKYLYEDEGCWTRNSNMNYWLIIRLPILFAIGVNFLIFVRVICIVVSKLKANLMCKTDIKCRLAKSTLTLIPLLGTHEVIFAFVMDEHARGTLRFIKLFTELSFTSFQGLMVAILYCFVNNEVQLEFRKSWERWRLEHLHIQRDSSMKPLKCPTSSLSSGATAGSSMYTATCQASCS

CNC(CCCCNC(=O)COCCOCCOCCNC(=O)COCCOCCOCCNC(=O)CCC(NC(=O)CC(=O)O)C(=O)O)C(N)=O (centres unmarked) [BG128]
EC50 [1]: 0.11 nM
EC50 [2]: 0.279 nM
glycosylated hemoglobin content in serum vs solvent control [3, 4]: no significant difference
insulin content in serum vs solvent control [3, 4]: significantly lower than that in the solvent control group
body weight vs solvent control [3, 4]: no significant difference
non-fasting blood glucose vs solvent control ([3]; 10 nmol/kg s.c., 1, 3, 6, 24, 48 and 72 h after first administration): reduce the blood glucose at each time point after the administration in a dose dependent manner
glycosylated hemoglobin content in serum vs solvent control [3, 5]: significantly lower than that in the BG121 (30 nmol/kg) administration group and the solvent control group
insulin content in serum vs solvent control [3, 5]: significantly lower than that in the solvent control group
body weight vs solvent control [3, 5]: significantly lower than that in the solvent control group and the BG121 (30 nmol/kg) administration group
fasting blood glucose vs solvent control ([3]; 30 nmol/kg s.c. once every 3 days, day 19 and 25 after first administration, FIG. 4): significantly reduce the fasting blood glucose level
non-fasting blood glucose vs solvent control ([3]; 30 nmol/kg s.c., 1, 3, 6, 24, 48 and 72 h after first administration): reduce the blood glucose at each time point after the administration in a dose dependent manner
